Patent US10406239B2, “Water-soluble docetaxel anticancer drug compound and preparation method and use thereof” (NANJING YOUYI MEDICAL TECHNOLOGY CO., LTD, priority 2015, dated 2019)
Marks after values point to notes of the source that are not given here.

Columns and labels:
[1] = system: A549 human lung cancer xenografts; assay: Growth inhibition on A549 human lung cancer xenografts in nude mice; format: in vivo, BALB/c nude mice; conditions: for Tumor inhibition rate: by tumor weight; for Tumor weight: tumors excised after 21 days
Protocol: (§1) The dose volume was 0.4 ml per 20 g, that is, the dose was 96 mg/kg. Then, the solution was diluted to other desired concentrations with 0.9% sodium chloride solution.
(§2) Docetaxel injection, manufactured by Jiangsu Hengrui Pharmaceutical Co., Ltd., lot number: 15011215, specification: 0.5 ml: 20 mg. Formulation method: during use, 20 mg of docetaxel injection of the above specification was added to 1.5 ml of a solvent for the docetaxel injection to give a concentration of 10 mg/ml, and then fully diluted with saline to 1 mg/ml. The dose volume was 0.2 ml per 20 g, that is, the dose was 10 mg/kg.
(§3) BALB/c nude mice, provided by Changzhou Kavens Laboratory Animal Co., Ltd. (Experimental Animal Production License: SOCK (Su) 2011-0003), age: 35-40 days, weight: 18-24 g, female.
A549 human lung cancer xenografts in nude mice was established by inoculating human lung cancer A549 cell line subcutaneously to the axillary fossa of nude mice in an amount of 2*10^6 cells/animal.
(§4) Human lung cancer A549 cell line in logarithmic growth phase was prepared into a cell suspension of 1×10^8 cells/ml under aseptic conditions and subcutaneously inoculated to the right axillary fossa of nude mice in a volume of 0.1 ml. The size of the xenograft in the nude mice was measured with a vernier caliper. After the xenografts grew to 100-300 mm^3, the animals were randomly grouped. The anti-tumor effect of the test agents was dynamically observed by measuring the size of the xenografts. The size of the xenografts was measured once every 3 days. The dose volume was 0.4 ml/20 g. Twenty-one days later, the mice were sacrificed and the tumors were surgically excised and weighed. The tumor volume (TV) is calculated by a formula below: TV=½×a×b^2
The relative tumor volume (RTV) is calculated based on the measurements by a formula: RTV=Vt/V0, where V0 is the measured tumor volume upon being caged (i.e., d0) and Vt is the tumor volume at each measurement. The evaluation index of the anti-tumor activity is relative tumor growth rate T/C (%), which is calculated by a formula below: […]
in which TRTV is the RTV of the treatment group; and CRTV is the RTV of the negative control group.
The tumor inhibition rate is calculated by a formula below: […]
Tweight is the average tumor weight of the treatment group; and Cweight is the average tumor weight of the negative control group.

[2] = Effect on body weight of nude mice with A549 human lung cancer xenografts; format: in vivo, BALB/c nude mice; conditions: for Initial body weight: before dosing; for Final body weight: once every 3 days, end of study (21 days)
Protocol: as §1, §2, §3, §4

[3] = XBB-023 24 mg/kg, tail vein, once every 3 days, 7 doses, 21 d
[4] = XBB-023 24 mg/kg, tail vein, once every 3 days, 3 d
[5] = XBB-023 24 mg/kg, tail vein, once every 3 days, 6 d
[6] = XBB-023 24 mg/kg, tail vein, once every 3 days, 9 d
[7] = XBB-023 24 mg/kg, tail vein, once every 3 days, 12 d
[8] = XBB-023 24 mg/kg, tail vein, once every 3 days, 15 d
[9] = XBB-023 24 mg/kg, tail vein, once every 3 days, 18 d
[10] = XBB-023 48 mg/kg, tail vein, once every 3 days, 7 doses, 21 d
[11] = XBB-023 48 mg/kg, tail vein, once every 3 days, 3 d
[12] = XBB-023 48 mg/kg, tail vein, once every 3 days, 6 d
[13] = XBB-023 48 mg/kg, tail vein, once every 3 days, 9 d
[14] = XBB-023 48 mg/kg, tail vein, once every 3 days, 12 d
[15] = XBB-023 48 mg/kg, tail vein, once every 3 days, 15 d
[16] = XBB-023 48 mg/kg, tail vein, once every 3 days, 18 d
[17] = XBB-023 96 mg/kg, tail vein, once every 3 days, 7 doses, 21 d
[18] = XBB-023 96 mg/kg, tail vein, once every 3 days, 3 d
[19] = XBB-023 96 mg/kg, tail vein, once every 3 days, 6 d
[20] = XBB-023 96 mg/kg, tail vein, once every 3 days, 9 d
[21] = XBB-023 96 mg/kg, tail vein, once every 3 days, 12 d
[22] = XBB-023 96 mg/kg, tail vein, once every 3 days, 15 d
[23] = XBB-023 96 mg/kg, tail vein, once every 3 days, 18 d

## Polyethylene Glycol Monomethyl Ether (Mn=1000) Docetaxel-2′-Diglycolate [XBB-023]
[1]; XBB-023 24 mg/kg group, 0 d (baseline)
  Tumor volume: 101.08 ± 20.73 mm^3
[1]; XBB-023 24 mg/kg, once every 3 days, 7 doses, 24 mg/kg
  Tumor inhibition rate: 34.73%
[1]; XBB-023 24 mg/kg, once every 3 days
  Tumor weight: 0.78 ± 0.22 g
[1]; [3]
  RTV (relative tumor volume): 6.39 ± 0.81
  Tumor volume: 660.00 ± 210.71* mm^3
[1]; XBB-023 24 mg/kg, tail vein, once every 3 days, 7 doses, 21 d, 24 mg/kg
  T/C (relative tumor growth rate): 56.30%
[1]; [4]
  RTV (relative tumor volume): 2.27 ± 0.52
  T/C (relative tumor growth rate): 78.90%
  Tumor volume: 232.16 ± 79.30* mm^3
[1]; [5]
  RTV (relative tumor volume): 2.38 ± 0.37
  T/C (relative tumor growth rate): 66.13%
  Tumor volume: 244.45 ± 80.88** mm^3
[1]; [6]
  RTV (relative tumor volume): 2.85 ± 0.39
  T/C (relative tumor growth rate): 61.19%
  Tumor volume: 289.34 ± 82.35** mm^3
[1]; [7]
  RTV (relative tumor volume): 3.68 ± 0.51
  T/C (relative tumor growth rate): 57.80%
  Tumor volume: 371.41 ± 95.01** mm^3
[1]; [8]
  RTV (relative tumor volume): 4.91 ± 1.58
  T/C (relative tumor growth rate): 58.72%
  Tumor volume: 522.84 ± 249.70* mm^3
[1]; [9]
  RTV (relative tumor volume): 5.68 ± 1.66
  T/C (relative tumor growth rate): 58.60%
  Tumor volume: 602.28 ± 288.50** mm^3
[1]; XBB-023 48 mg/kg group, 0 d (baseline)
  Tumor volume: 101.49 ± 18.47 mm^3
[1]; XBB-023 48 mg/kg, once every 3 days, 7 doses, 48 mg/kg
  Tumor inhibition rate: 68.55%
[1]; XBB-023 48 mg/kg, once every 3 days
  Tumor weight: 0.38 ± 0.14 g
[1]; [10]
  RTV (relative tumor volume): 2.90 ± 0.37
  Tumor volume: 299.13 ± 86.76** mm^3
[1]; XBB-023 48 mg/kg, tail vein, once every 3 days, 7 doses, 21 d, 48 mg/kg
  T/C (relative tumor growth rate): 25.56%
[1]; [11]
  RTV (relative tumor volume): 1.59 ± 0.35
  T/C (relative tumor growth rate): 55.23%
  Tumor volume: 159.57 ± 38.77** mm^3
[1]; [12]
  RTV (relative tumor volume): 1.80 ± 0.18
  T/C (relative tumor growth rate): 49.90%
  Tumor volume: 180.89 ± 31.39** mm^3
[1]; [13]
  T/C (relative tumor growth rate): 52.80%
  Tumor volume: 245.14 ± 40.82** mm^3
[1]; [14]
  RTV (relative tumor volume): 3.02 ± 0.53
  T/C (relative tumor growth rate): 47.50%
  Tumor volume: 302.66 ± 60.48 mm^3
[1]; [15]
  RTV (relative tumor volume): 2.61 ± 0.47
  T/C (relative tumor growth rate): 31.23%
  Tumor volume: 264.78 ± 68.29** mm^3
[1]; [16]
  RTV (relative tumor volume): 2.50 ± 0.37
  T/C (relative tumor growth rate): 25.76%
  Tumor volume: 257.22 ± 76.37** mm^3
[1]; XBB-023 96 mg/kg group, 0 d (baseline)
  Tumor volume: 102.83 ± 14.74 mm^3
[1]; XBB-023 96 mg/kg versus 10 mg/kg docetaxel
  inhibition rate higher than that in the positive control group: 16.29%
[1]; XBB-023 96 mg/kg, once every 3 days, 7 doses, 96 mg/kg
  Tumor inhibition rate: 88.45%
[1]; XBB-023 96 mg/kg, once every 3 days
  Tumor weight: 0.14 ± 0.03 g
[1]; [17]
  RTV (relative tumor volume): 1.46 ± 0.32
  Tumor volume: 146.15 ± 20.51** mm^3
[1]; XBB-023 96 mg/kg, tail vein, once every 3 days, 7 doses, 21 d, 96 mg/kg
  T/C (relative tumor growth rate): 12.83%
[1]; [18]
  RTV (relative tumor volume): 1.54 ± 0.31
  T/C (relative tumor growth rate): 53.47%
  Tumor volume: 154.44 ± 15.73** mm^3
[1]; [19]
  RTV (relative tumor volume): 1.26 ± 0.15
  T/C (relative tumor growth rate): 35.11%
  Tumor volume: 129.15 ± 19.29** mm^3
[1]; [20]
  RTV (relative tumor volume): 1.54 ± 0.22
  T/C (relative tumor growth rate): 33.18%
  Tumor volume: 15628 ± 17.71** mm^3
[1]; [21]
  RTV (relative tumor volume): 1.54 ± 0.33
  T/C (relative tumor growth rate): 24.19%
  Tumor volume: 156.91 ± 35.05** mm^3
[1]; [22]
  RTV (relative tumor volume): 1.06 ± 0.28
  T/C (relative tumor growth rate): 12.63%
  Tumor volume: 107.31 ± 27.45** mm^3
[1]; [23]
  RTV (relative tumor volume): 1.13 ± 0.21
  T/C (relative tumor growth rate): 11.66%
  Tumor volume: 114.16 ± 17.61** mm^3
[2]; 48 mg/kg XBB-023, P<0.05
  effect on the body weight of the experimental mice (in words): significant effect
[2]; 96 mg/kg XBB-023, P<0.01
  effect on the body weight of the experimental mice (in words): Extremely significant effect
[2]; XBB-023 24 mg/kg group
  Initial body weight: 22.17 ± 1.57 g
[2]; XBB-023 24 mg/kg
  Final body weight: 23.17 ± 0.90 g
[2]; XBB-023 48 mg/kg group
  Initial body weight: 21.33 ± 1.37 g
[2]; XBB-023 48 mg/kg
  Final body weight: 20.00 ± 0.82 g
[2]; XBB-023 96 mg/kg group
  Initial body weight: 22.00 ± 0.82 g
[2]; XBB-023 96 mg/kg
  Final body weight: 16.00 ± 2.31 g
